Source: patent US20170313674A1, “BENZYLHYDROXIDE DERIVATIVES, PREPARATION THEREOF AND THERAPEUTIC USE THEREOF” (SANOFI, priority 2014, published 2017)
Where two headings read alike, the source gives them in different places.

Experiments:
[1] = tested on: mitochondrial ATP production on non-small cell lung carcinoma cell lines NCI-H460; assay: Mitochondrial ATP analysis (Cell Titer Glo) in NCI-H460 cells; format: cell-based; details: 1-hour incubation, with sodium iodoacetate (100 μM), concentration inhibiting 50% of mitochondrial ATP production, read-out: IC50 (mito ATP)
Procedure, shortened: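 NCI-H460 cells (1,000/well) treated 24 h after plating for 1 h with compound dose series alone or with 100 μM sodium iodoacetate; oligomycin A (10 μg/ml) and FCCP (30 μM) as controls; Cell Titer Glo luminescence. Mitochondrial ATP = ATP under iodoacetate minus ATP under iodoacetate+oligomycin; IC50 (M).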

HIF-1a = assay: Western blot model: HIF1-a stabilization in Hep3b cells under hypoxia; format: cell-based; details: hypoxia 1% O2, 6 hours; for Western Blot (range of decrease of HIF1-a stabilization): class symbol
Procedure, shortened: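 Hep3B cells were exposed to compound under hypoxia (1% O2, 37 °C, 5% CO2) for 6 hours. HIF-1a was detected by western blot of 25 μg lysate protein with β-actin as loading control and ECL read-out. Activity is given as a percentage range relative to control.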

| SMILES | IC50 ([1]; Homo sapiens, NCI-H460, 1 h) [nM] | IC50 [1] [nM] | Western Blot (decrease of HIF1-a stabilization, percentage relative to control) (HIF-1a) [%] | Western Blot (range of decrease of HIF1-a stabilization) (HIF-1a) |
| --- | --- | --- | --- | --- |
| COc1ccc(C(O)COc2ccc(-c3csc(-c4ccc(OCC(O)c5ccc(OC)c(OC)c5)cc4)c3)cc2)cc1OC (stereo not drawn) [Compound I-35, 1-(3,4-dimethoxyphenyl)-2-[4-[5-[4-[2-(3,4-dimethoxyphenyl)-2-hydroxy-ethoxy]phenyl]-3-thienyl]phenoxy]ethanol] | 303 |  | 68 | ** (** represents a decrease of HIF-a stabilization between 50 to 70%) |
| COc1ccc(C(O)COc2ccc(-c3noc(-c4ccc(OCC(O)c5ccc(OC)c(OC)c5)cc4)n3)cc2)cc1OC (stereo not drawn) [Compound I-36, 1-(3,4-dimethoxyphenyl)-2-[4-[5-[4-[2-(3,4-dimethoxyphenyl)-2-hydroxy-ethoxy]phenyl]-1,2,4-oxadiazol-3-yl]phenoxy]ethanol] | 676 |  | 62 | ** (** represents a decrease of HIF-a stabilization between 50 to 70%) |
| COc1ccc(C(O)C(C)(C)Oc2ccc(-c3nsc(-c4ccc(OC(C)(C)C(O)c5ccc(OC)c(OC)c5)cc4)n3)cc2)cc1OC (stereo not drawn) [Compound I-42, 1-(3,4-dimethoxyphenyl)-2-[4-[5-[4-[2-(3,4-dimethoxyphenyl)-2-hydroxy-1,1-dimethyl-ethoxy]phenyl]-1,2,4-thiadiazol-3-yl]phenoxy]-2-methyl-propan-1-ol] | 30 |  | 56 | ** (** represents a decrease of HIF-a stabilization between 50 to 70%) |
| COc1ccc(C(O)COc2ccc(-c3cn(C)c(-c4ccc(OCC(O)c5ccc(OC)c(OC)c5)cc4)n3)cc2)cc1OC (stereo not drawn) [Compound I-58, 1-(3,4-dimethoxyphenyl)-2-[4-[2-[4-[2-(3,4-dimethoxyphenyl)-2-hydroxy-ethoxy]phenyl]-1-methyl-imidazol-4-yl]phenoxy]ethanol] | 458 |  | 56 | ** (** represents a decrease of HIF-a stabilization between 50 to 70%) |
| COc1ccc(C(O)COc2ccc(-c3csc(-c4ccc(OC(C)(C)C(O)c5ccc(OC)c(OC)c5)cc4)n3)cc2)cc1OC (stereo not drawn) [Compound I-63, 1-(3,4-dimethoxyphenyl)-2-[4-[4-[4-[2-(3,4-dimethoxyphenyl)-2-hydroxy-ethoxy]phenyl]thiazol-2-yl]phenoxy]-2-methyl-propan-1-ol] | 42.9 |  | 64 | ** (** represents a decrease of HIF-a stabilization between 50 to 70%) |

More lines, main results first:

| IC50 ([1]; Homo sapiens, NCI-H460, 1 h) [nM] | IC50 [1] [nM] | SMILES | Western Blot (decrease of HIF1-a stabilization, percentage relative to control) (HIF-1a) [%] | Western Blot (range of decrease of HIF1-a stabilization) (HIF-1a) |
| --- | --- | --- | --- | --- |
|  | 133 | COc1ccc(C(O)C(C)(C)Oc2ccc(-c3noc(-c4ccc(OC(C)(C)C(O)c5ccc(OC)c(OC)c5)cc4)n3)cc2)cc1OC (stereo not drawn) [Compound I-38, 1-(3,4-dimethoxyphenyl)-2-[4-[5-[4-[2-(3,4-dimethoxyphenyl)-2-hydroxy-11-dimethyl-ethoxy]phenyl]-1,2,4-oxadiazol-3-yl]phenoxy]-2-methyl-propan-1-ol] | 79 | *** (*** represents a decrease of HIF-a stabilization higher than 70%) |
| 92.5 |  | COc1ccc(C(O)C(C)Oc2ccc(-c3nsc(-c4ccc(OC(C)C(O)c5ccc(OC)c(OC)c5)cc4)n3)cc2)cc1OC (stereo not drawn) [Compound I-39, 1-(3,4-dimethoxyphenyl)-2-[4-[5-[4-[2-(3,4-dimethoxyphenyl)-2-hydroxy-1-methyl-ethoxy]phenyl]-1,2,4-thiadiazol-3-yl]phenoxy]propan-1-ol] | 51 | ** (** represents a decrease of HIF-a stabilization between 50 to 70%) |
| 426 |  | COc1ccc(C(O)C(C)Oc2ccc(-c3cnc(-c4ccc(OC(C)C(O)c5ccc(OC)c(OC)c5)cc4)o3)cc2)cc1OC (stereo not drawn) [Compound I-45, 1-(3,4-dimethoxyphenyl)-2-[4-[2-[4-[2-(3,4-dimethoxyphenyl)-2-hydroxy-1-methyl-ethoxy]phenyl]oxazol-5-yl]phenoxy]propan-1-ol] | 87 | *** (*** represents a decrease of HIF-a stabilization higher than 70%) |
| 51.9 |  | COc1ccc(C(O)C(C)(C)Oc2ccc(-c3cn(C)c(-c4ccc(OC(C)(C)C(O)c5ccc(OC)c(OC)c5)cc4)n3)cc2)cc1OC (stereo not drawn) [Compound I-57, 1-(3,4-dimethoxyphenyl)-2-[4-[2-[4-[2-(3,4-dimethoxyphenyl)-2-hydroxy-1,1-dimethyl-ethoxy]phenyl]-1-methyl-imidazol-4-yl]phenoxy]-2-methyl-propan-1-ol] | 18 | − (− represents a decrease of HIF1-a stabilization is less than 30%) |
| 180 |  | COc1ccc(C(O)COc2ccc(-c3nc(-c4ccc(OC(C)(C)C(O)c5ccc(OC)c(OC)c5)cc4)cs3)cc2)cc1OC (stereo not drawn) [Compound I-64, 1-(3,4-dimethoxyphenyl)-2-[4-[2-[4-[2-(3,4-dimethoxyphenyl)-2-hydroxy-ethoxy]phenyl]thiazol-4-yl]phenoxy]-2-methyl-propan-1-ol] | 58 | ** (** represents a decrease of HIF-a stabilization between 50 to 70%) |
